Measurements reported in patent US11878973B2, “Bicyclic compounds and their uses” (NOVARTIS AG, priority 2021, dated 2024).

Test system: SW48 xenografts
Conditions: 240 mg/kg qd oral

Compound: CCc1c(N2CCN(C(=O)c3ncccc3O)CC2)c(=O)n2nc(C3=CCOCC3)nc2n1CC(=O)Nc1ccc(C(F)(F)F)cc1C [Example 58, 2-(2-(3,6-dihydro-2H-pyran-4-yl)-5-ethyl-6-(4-(3-hydroxypicolinoyl)piperazin-1-yl)-7-oxo-[1,2,4]triazolo[1,5-a]pyrimidin-4(7H)-yl)-N-(2-methyl-4-(trifluoromethyl)phenyl)acetamide]
- antitumor response (SW48 xenografts in nude mice): induced an antitumor response
- T/C % value (day 18, SW48 xenografts in nude mice, p<0.05 vs vehicle): −9%
- tumor regression (mean tumor volume) (day 18, in the 4/7 surviving animals): −26%
